Assay results taken from US6962894B1, “Herbicidal composition” (Syngenta Crop Protection, Inc., priority 1999, dated 2005).

Legend:
Assay in all cases: Post-emergence greenhouse pot test, herbicide alone and with safener
Format in all cases: in vivo
Agrostis spica-venti = conditions: 10 days after application
Description: (§1) The test plants are grown in pots under greenhouse conditions until a post-application stage. A standard soil is used as the cultivation substrate. At a post-emergence stage, the herbicides, both alone and in admixture with safeners, are applied to the test plants or to cultivated plants of which the seeds were dressed with safeners. Application is carried out using an emulsion prepared from a 25% emulsifiable concentrate (Example F1, b)) of the test substances using 500 l of water/ha. The rates of application are matched to the optimum dosages determined under field or greenhouse conditions. Evaluation of the tests is carried out after 9, 10, 20 and 24 days (100% action=complete destruction; 0% action=no phytotoxic action).

Alopecurus myosuroides = conditions: 10 days after application
Description: as §1

Lolium rigidum = system: Lolium rigidum
Description: as §1

hard wheat = system: hard wheat
Description: as §1

summer wheat = system: summer wheat
Description: as §1

winter barley = conditions: 10 days after application
Description: as §1

winter wheat = conditions: 10 days after application
Description: as §1

[1] = 20 days after application, herbicide alone 60 g a.i./ha
[2] = 20 days after application, herbicide alone 125 g a.i./ha
[3] = 20 days after application, herbicide alone 250 g a.i./ha
[4] = 9 days after application, herbicide alone 60 g a.i./ha
[5] = 9 days after application, herbicide alone 125 g a.i./ha
[6] = 9 days after application, herbicide alone 250 g a.i./ha

CCc1cc(C)cc(CC)c1C1C(=O)N2CCOCCN2C1=O [herbicide no. I1, 8-(2,6-diethyl-4-methylphenyl)tetrahydropyrazolo[1,2-d][1,4,5]-oxadiazepine-7,9-dione]
action (100% = complete destruction; 0% = no phytotoxic action) (Agrostis spica-venti; herbicide alone 15 g a.i./ha): 70% | action (100% = complete destruction; 0% = no phytotoxic action) (Agrostis spica-venti; herbicide alone 30 g a.i./ha): 70% | action (100% = complete destruction; 0% = no phytotoxic action) (Agrostis spica-venti; herbicide alone 60 g a.i./ha): 80% | action (100% = complete destruction; 0% = no phytotoxic action) (Agrostis spica-venti; herbicide alone 125 g a.i./ha): 80% | action (100% = complete destruction; 0% = no phytotoxic action) (Alopecurus myosuroides; herbicide alone 15 g a.i./ha): 50% | action (100% = complete destruction; 0% = no phytotoxic action) (Alopecurus myosuroides; herbicide alone 30 g a.i./ha): 80% | action (100% = complete destruction; 0% = no phytotoxic action) (Alopecurus myosuroides; herbicide alone 60 g a.i./ha): 80% | action (100% = complete destruction; 0% = no phytotoxic action) (Alopecurus myosuroides; herbicide alone 125 g a.i./ha): 90% | action (100% = complete destruction; 0% = no phytotoxic action) (Lolium rigidum; 10 days after application, herbicide alone 15 g a.i./ha): 60% | action (100% = complete destruction; 0% = no phytotoxic action) (Lolium rigidum; 10 days after application, herbicide alone 30 g a.i./ha): 60% | action (100% = complete destruction; 0% = no phytotoxic action) (Lolium rigidum; 10 days after application, herbicide alone 60 g a.i./ha): 60% | action (100% = complete destruction; 0% = no phytotoxic action) (Lolium rigidum; 10 days after application, herbicide alone 125 g a.i./ha): 80% | action (100% = complete destruction; 0% = no phytotoxic action) (Lolium rigidum; [1]): 95% | action (100% = complete destruction; 0% = no phytotoxic action) (Lolium rigidum; [2]): 100% | action (100% = complete destruction; 0% = no phytotoxic action) (Lolium rigidum; [3]): 100% | action (100% = complete destruction; 0% = no phytotoxic action) (hard wheat; [4]): 55% | action (100% = complete destruction; 0% = no phytotoxic action) (hard wheat; [5]): 60% | action (100% = complete destruction; 0% = no phytotoxic action) (hard wheat; [6]): 60% | action (100% = complete destruction; 0% = no phytotoxic action) (hard wheat; [1]): 20% | action (100% = complete destruction; 0% = no phytotoxic action) (hard wheat; [2]): 30% | action (100% = complete destruction; 0% = no phytotoxic action) (hard wheat; [3]): 45% | action (100% = complete destruction; 0% = no phytotoxic action) (summer wheat; [4]): 60% | action (100% = complete destruction; 0% = no phytotoxic action) (summer wheat; [5]): 60% | action (100% = complete destruction; 0% = no phytotoxic action) (summer wheat; [6]): 60% | action (100% = complete destruction; 0% = no phytotoxic action) (summer wheat; [1]): 20% | action (100% = complete destruction; 0% = no phytotoxic action) (summer wheat; [2]): 40% | action (100% = complete destruction; 0% = no phytotoxic action) (summer wheat; [3]): 50% | action (100% = complete destruction; 0% = no phytotoxic action) (winter barley; herbicide alone 15 g a.i./ha): 0% | action (100% = complete destruction; 0% = no phytotoxic action) (winter barley; herbicide alone 30 g a.i./ha): 0% | action (100% = complete destruction; 0% = no phytotoxic action) (winter barley; herbicide alone 60 g a.i./ha): 0% | action (100% = complete destruction; 0% = no phytotoxic action) (winter barley; herbicide alone 125 g a.i./ha): 0% | action (100% = complete destruction; 0% = no phytotoxic action) (winter wheat; herbicide alone 15 g a.i./ha): 0% | action (100% = complete destruction; 0% = no phytotoxic action) (winter wheat; herbicide alone 30 g a.i./ha): 5% | action (100% = complete destruction; 0% = no phytotoxic action) (winter wheat; herbicide alone 60 g a.i./ha): 10% | action (100% = complete destruction; 0% = no phytotoxic action) (winter wheat; herbicide alone 125 g a.i./ha): 20%
